Experimental data: PubChem BioAssay (NCI)
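Five compound concentrations were applied to cells in 96-well plates for 48 hours; endpoints were derived by simple linear interpolation of the resulting dose-response curve. Abbreviation: GI50, concentration required for 50% inhibition of growth. TGI marks complete inhibition of growth.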

Key:
Test in all cases: inhibition of tumour cell growth, NCI panel, 48 h
[1] = system: SN12C renal
[2] = system: MALME-3M melanoma
[3] = system: SR leukemia
[4] = system: KM12 colon
[5] = system: CAKI-1 renal
[6] = system: NCI-H226 lung
[7] = system: T-47D breast
[8] = system: K-562 leukemia
[9] = system: SK-MEL-5 melanoma
[10] = system: MOLT-4 leukemia
[11] = system: HS 578T breast
[12] = system: A498 renal
[13] = system: SF-295 CNS
[14] = system: HCC-2998 colon
[15] = system: SK-MEL-2 melanoma
[16] = system: MCF7 breast
[17] = system: NCI-H522 lung
[18] = system: OVCAR-5 ovarian
[19] = system: MDA-MB-435
[20] = system: COLO 205 colon
[21] = system: RXF 393 renal
[22] = system: NCI/ADR-RES ovarian
[23] = system: OVCAR-8 ovarian
[24] = system: HL-60(TB) leukemia
[25] = system: SK-OV-3 ovarian
[26] = system: TK-10 renal
[27] = system: SF-268 CNS
[28] = system: U251 CNS
[29] = system: SF-539 CNS
[30] = system: OVCAR-3 ovarian
[31] = system: LOX IMVI melanoma
[32] = system: SK-MEL-28 melanoma
[33] = system: SW-620 colon
[34] = system: DU-145 prostate
[35] = system: PC-3 prostate
[36] = system: IGROV1 ovarian
[37] = system: MDA-MB-231 breast
[38] = system: ACHN renal
[39] = system: 786-0 renal
[40] = system: NCI-H460 lung
[41] = system: CCRF-CEM leukemia
[42] = system: HOP-62 NSCLC
[43] = system: A549 NSCLC
[44] = system: OVCAR-4 ovarian
[45] = system: EKVX NSCLC
[46] = system: UACC-257 melanoma
[47] = system: BT-549 breast
[48] = system: UO-31 renal
[49] = system: HT29 colon
[50] = system: HCT-116 colon
[51] = system: M14 melanoma
[52] = system: UACC-62 melanoma
[53] = system: SNB-75 CNS
[54] = system: SNB-19 CNS
[55] = system: HCT-15 colon
[56] = system: NCI-H23 lung
[57] = system: RPMI-8226 leukemia

## Oc1ccc(/C=C/c2ccc(O)cc2)cc1
[1]
  GI50: 2.97 µM
  TGI: > 100 µM
[2]
  GI50: 18.1 µM
  TGI: > 100 µM
[3]
  GI50: 0.204 µM
  TGI: 0.703 µM
[4]
  GI50: 2.73 µM
  TGI: > 80.7 µM
[5]
  GI50: 3.5 µM
  TGI: > 24.1 µM
[6]
  GI50: 5.63 µM
  TGI: > 100 µM
[7]
  GI50: 5.7 µM
  TGI: > 100 µM
[8]
  GI50: 2.65 µM
  TGI: > 100 µM
[9]
  GI50: 3.04 µM
  TGI: > 68.3 µM
[10]
  GI50: 2.18 µM
  TGI: 45.1 µM
[11]
  GI50: 4.09 µM
  TGI: > 83.9 µM
[12]
  GI50: 10.3 µM
  TGI: 99.6 µM
[13]
  GI50: 5.91 µM
  TGI: > 84.7 µM
[14]
  GI50: 3.59 µM
  TGI: 18 µM
[15]
  GI50: 9.79 µM
  TGI: > 89.2 µM
[16]
  GI50: 4.41 µM
  TGI: > 100 µM
[17]
  GI50: 0.465 µM
  TGI: 1.71 µM
[18]
  GI50: 28.9 µM
  TGI: > 100 µM
[19]
  GI50: 6.64 µM
  TGI: > 100 µM
[20]
  GI50: > 55.1 µM
  TGI: > 100 µM
[21]
  GI50: 2.94 µM
  TGI: > 100 µM
[22]
  GI50: 3.25 µM
  TGI: > 95.4 µM
[23]
  GI50: 2.44 µM
  TGI: > 61.1 µM
[24]
  GI50: 0.252 µM
  TGI: 0.738 µM
[25]
  GI50: 16.1 µM
  TGI: > 100 µM
[26]
  GI50: 9.62 µM
  TGI: > 100 µM
[27]
  GI50: 2.15 µM
  TGI: > 94.7 µM
[28]
  GI50: 3.09 µM
  TGI: > 100 µM
[29]
  GI50: 2.45 µM
  TGI: 8.8 µM
[30]
  GI50: 0.971 µM
  TGI: > 92.1 µM
[31]
  GI50: 2.85 µM
  TGI: 20.4 µM
[32]
  GI50: 30.1 µM
  TGI: > 100 µM
[33]
  GI50: 7.52 µM
  TGI: > 100 µM
[34]
  GI50: 3.84 µM
  TGI: 44 µM
[35]
  GI50: 4.02 µM
  TGI: > 100 µM
[36]
  GI50: 0.72 µM
[37]
  GI50: 2.78 µM
  TGI: > 100 µM
[38]
  GI50: 1.25 µM
  TGI: > 61.7 µM
[39]
  GI50: 2.17 µM
  TGI: 7.93 µM
[40]
  GI50: 3.37 µM
  TGI: > 100 µM
[41]
  GI50: 0.219 µM
  TGI: 0.761 µM
[42]
  GI50: 5.59 µM
  TGI: > 96.5 µM
[43]
  GI50: 2.69 µM
  TGI: > 38.5 µM
[44]
  GI50: 8.78 µM
  TGI: > 100 µM
[45]
  GI50: 9.15 µM
  TGI: > 100 µM
[46]
  GI50: 18.6 µM
  TGI: > 100 µM
[47]
  GI50: 1.26 µM
  TGI: > 90 µM
[48]
  GI50: 1.38 µM
  TGI: > 100 µM
[49]
  GI50: 29 µM
  TGI: > 100 µM
[50]
  GI50: 4.28 µM
  TGI: > 100 µM
[51]
  GI50: 3.82 µM
  TGI: 58.9 µM
[52]
  GI50: 2.36 µM
  TGI: 16.9 µM
[53]
  GI50: 1.89 µM
  TGI: > 100 µM
[54]
  GI50: 18.2 µM
  TGI: > 100 µM
[55]
  GI50: 3.13 µM
  TGI: > 100 µM
[56]
  GI50: 3.82 µM
  TGI: > 90.5 µM

## CN(C)c1ccc(O)c2c1CC1CC3C(N(C)C)C(=O)C(C(N)=O)=C(O)C3(O)C(=O)C1=C2O (centres undefined)
[1]
  GI50: 18.1 µM
  TGI: 89.9 µM
[2]
  GI50: 16.3 µM
  TGI: 41.7 µM
[3]
  GI50: 15.7 µM
  TGI: > 100 µM
[4]
  GI50: 13.1 µM
  TGI: 32.2 µM
[5]
  GI50: 5.74 µM
  TGI: 91.4 µM
[6]
  GI50: 20.6 µM
  TGI: > 100 µM
[7]
  GI50: 27.7 µM
  TGI: > 100 µM
[8]
  GI50: 16.8 µM
  TGI: > 100 µM
[9]
  GI50: 12 µM
  TGI: 28 µM
[10]
  GI50: 22.6 µM
  TGI: 74.1 µM
[11]
  GI50: 14.4 µM
  TGI: 59.4 µM
[12]
  GI50: 6.96 µM
  TGI: 35.9 µM
[14]
  GI50: 11.9 µM
  TGI: 39.1 µM
[15]
  GI50: 5.66 µM
  TGI: 22.9 µM
[16]
  GI50: 20.2 µM
  TGI: > 100 µM
[17]
  GI50: 13.6 µM
  TGI: 46 µM
[18]
  GI50: 15.6 µM
  TGI: > 100 µM
[19]
  GI50: 17.9 µM
  TGI: > 100 µM
[20]
  GI50: 13.7 µM
  TGI: 27 µM
[21]
  GI50: 4.84 µM
  TGI: 21.6 µM
[22]
  GI50: 17.3 µM
  TGI: 73.6 µM
[23]
  GI50: 9.84 µM
  TGI: 81.7 µM
[24]
  GI50: 12.7 µM
  TGI: 48.9 µM
[25]
  GI50: 14.6 µM
  TGI: 85.4 µM
[26]
  GI50: 5.66 µM
  TGI: 35.5 µM
[27]
  GI50: 18.9 µM
  TGI: 92.3 µM
[28]
  GI50: 6.84 µM
  TGI: 31.6 µM
[29]
  GI50: 14.6 µM
  TGI: 35.5 µM
[30]
  GI50: 12.8 µM
  TGI: 39 µM
[31]
  GI50: 6.21 µM
  TGI: 37.3 µM
[32]
  GI50: 22.1 µM
  TGI: 59.1 µM
[33]
  GI50: 15.3 µM
  TGI: > 100 µM
[34]
  GI50: 13.1 µM
  TGI: 59.1 µM
[35]
  GI50: 12.6 µM
  TGI: 48.7 µM
[36]
  GI50: 5.78 µM
  TGI: 24.2 µM
[37]
  GI50: 19.1 µM
  TGI: 47 µM
[38]
  GI50: 8.4 µM
  TGI: > 100 µM
[39]
  GI50: 11.5 µM
  TGI: 39.7 µM
[40]
  GI50: 10.6 µM
  TGI: 29.6 µM
[41]
  GI50: 19.5 µM
  TGI: > 100 µM
[42]
  GI50: 19.1 µM
  TGI: 62.9 µM
[43]
  GI50: 9.43 µM
  TGI: 59.2 µM
[44]
  GI50: 24.2 µM
  TGI: > 100 µM
[46]
  GI50: 17 µM
  TGI: 52.1 µM
[47]
  GI50: 13.6 µM
  TGI: 45 µM
[57]
  GI50: 5.86 µM
  TGI: 26.8 µM
[48]
  GI50: 7.47 µM
  TGI: 73 µM
[49]
  GI50: 15.4 µM
  TGI: 42.9 µM
[50]
  GI50: 11.6 µM
  TGI: > 100 µM
[51]
  GI50: 11.2 µM
  TGI: > 100 µM
[52]
  GI50: 9.18 µM
  TGI: 22 µM
[54]
  GI50: 18.8 µM
  TGI: > 100 µM
[55]
  GI50: 5.59 µM
  TGI: > 100 µM
[56]
  GI50: 15.2 µM
  TGI: 56 µM
